Experimental data as given in patent publication US20210261621A1, “Preparation of Dilipid Polymixins and Use Thereof as Antimicrobial Adjuvants” (priority 2018, published 2021).
Where two headings read alike, the source gives them in different places.

Test system: P. aeruginosa PAO1
Design: MICDrug / MICDrug in combo / MIC of adjuvant in combo: unit not given beside the values
Settings: for MICDrug: antibiotic alone
Method: The potential of the dilipid polymyxins to serve as an adjuvant in combination with other antibiotics was evaluated against P. aeruginosa PAO1 strain (Tables 4 and 7-12). […] Checkerboard assays were performed with the dilipid polymyxins in combination with twenty-one clinically-used antibiotics. The panel included representatives from the β-lactam, carbapenem, tetracycline, aminoglycoside and fluoroquinolone antibiotic families. Other agents that are used to treat Gram-negative bacterial infection such as fosfomycin, trimethoprim and chloramphenicol were also included. […] Fractional inhibitory concentration (FIC) index was calculated for each combination to measure potential synergism between the two agents. FIC was obtained by dividing the MIC of antibiotic/adjuvant in combination by the MIC of antibiotic/adjuvant alone, while FIC index was calculated by the summation of FIC indices for the antibiotic and adjuvant. An FIC index of ≤0.5, 0.5<x≤4, or >4 denotes for synergistic, additive or antagonistic interaction, respectively. Initially, we assessed the adjuvant properties of PMBN against the panel of 21 antibiotics.
The assay was performed on 96-well plates as previously described. Briefly, the antibiotic at study was 2-fold serially diluted along the x-axis, while the adjuvant was 2-fold serially diluted along the y-axis to create a matrix in which each well consists of a combination of both at different concentrations. Overnight grown bacterial cultures were diluted in saline to 0.5 McFarland turbidity, followed by 1:50 dilution in MHB and inoculation on each well to a final concentration of approximately 5×10^5 colony forming units/mL. Wells containing only MHB with or without bacterial cells were used as positive or negative control, respectively. […] The fractional inhibitory concentration (FIC) of the antibiotic was calculated via dividing the MIC of antibiotic in the presence of adjuvant by the MIC of antibiotic alone. Similarly, the FIC of adjuvant was calculated via dividing the MIC of adjuvant in the presence of antibiotic by the MIC of adjuvant alone. The FIC index was obtained by the summation of both FIC values. The FIC index was then interpreted as synergistic, additive, or antagonistic for values of ≤0.5, 0.5<x<4, or ≥4, respectively.

[1] = antibiotic in combination with 1
[2] = antibiotic in combination with 3
[3] = antibiotic in combination with 4
[4] = antibiotic in combination with 5
[5] = antibiotic in combination with PMBN
[6] = antibiotic in combination with 2

| MICDrug | MICDrug in combo [1] | MICDrug in combo [2] | MICDrug in combo [3] | MICDrug in combo [4] | MICDrug in combo [5] | MICDrug in combo [6] | SMILES |
| --- | --- | --- | --- | --- | --- | --- | --- |
| 4 | (0.5) | (1) | (0.0625) | (0.5) | (0.5) |  | C[C@H]1[C@H](NC(=O)/C(=N\OC(C)(C)C(=O)O)c2csc(N)n2)C(=O)N1S(=O)(=O)O [Aztreonam, reference compound] |
| 2 | (0.25) | (1) | (0.0625) | (0.25) | (0.25) | (1) | CC(C)(O/N=C(\C(=O)N[C@@H]1C(=O)N2C(C(=O)[O-])=C(C[n+]3ccccc3)CS[C@H]12)c1csc(N)n1)C(=O)O [Ceftazidime, reference compound] |
| 32 | (2) | (4) | (4) | (8) | (2) | (4) | O=C(N[C@H](CO)[C@H](O)c1ccc([N+](=O)[O-])cc1)C(Cl)Cl [Chloramphenicol, reference compound] |
| 1 | (0.5) | (0.5) | (0.0625) | (0.5) | (0.25) | (0.125) | C[C@@H](O)[C@H]1C(=O)N2C(C(=O)O)=C(S[C@@H]3CN[C@H](CNS(N)(=O)=O)C3)[C@H](C)[C@H]12 [Doripenem, reference compound] |
|  | (0.5) | (1) | (4) | (0.25) | (0.25) | (0.125) | C[C@H]1c2cccc(O)c2C(=O)C2=C(O)[C@]3(O)C(=O)C(C(N)=O)=C(O)[C@@H](N(C)C)[C@@H]3[C@@H](O)[C@@H]21 [Doxycycline, reference compound] |
|  | (2) | (8) | (8) | (1) | (2) | (0.125) | C[C@@H]1O[C@@H]1P(=O)(O)O [Fosfomycin, reference compound] |
| 1024 | (64) | (0.25) | (0.25) | (32) | (32) | (1) | CC(=O)NC[C@H]1CN(c2ccc(N3CCOCC3)c(F)c2)C(=O)O1 [Linezolid, reference compound] |
|  | (0.25) | (0.5) | (0.5) | (0.5) | (0.125) | (0.0625) | C[C@@H](O)[C@H]1C(=O)N2C(C(=O)O)=C(S[C@@H]3CN[C@H](C(=O)N(C)C)C3)[C@H](C)[C@H]12 [Meropenem, reference compound] |
| 16 | (1) | (2) | (4) | (2) | (0.5) | (4) | CN(C)c1ccc(O)c2c1C[C@H]1C[C@H]3[C@H](N(C)C)C(O)=C(C(N)=O)C(=O)[C@@]3(O)C(O)=C1C2=O [Minocycline, reference compound] |
| 1 | (0.125) | (0.5) | (1) | (0.25) | (0.125) | (1) | COc1c(N2C[C@@H]3CCCN[C@@H]3C2)c(F)cc2c(=O)c(C(=O)O)cn(C3CC3)c12 [Moxifloxacin, reference compound] |
| 512 | (16) | (0.5) | (2) | (128) | (4) | (8) | CO[C@@H]1[C@@H](OC(N)=O)[C@@H](O)[C@H](Oc2ccc3c(O)c(NC(=O)c4ccc(O)c(CC=C(C)C)c4)c(=O)oc3c2C)OC1(C)C [Novobiocin, reference compound] |
| 4 | (2) | (2) | (4) | (2) | (1) | (0.0625) | CCN1CCN(C(=O)N[C@@H](C(=O)N[C@@H]2C(=O)N3[C@@H]2SC(C)(C)[C@@H]3C(=O)O)c2ccccc2)C(=O)C1=O [Piperacillin, reference compound] |
| 512 | (4) | (8) | (4) | (2) | (16) | (4) | C=C[C@]1(C)C[C@@H](OC(=O)CO)[C@]2(C)[C@H](C)CC[C@]3(CCC(=O)[C@H]32)[C@@H](C)[C@@H]1O [Pleuromutilin, reference compound] |
| 16 |  | (8) | (0.25) | (1) | (0.0625) | (8) | CO[C@H]1/C=C/O[C@@]2(C)Oc3c(C)c(O)c4c(O)c(c(/C=N/N5CCN(C)CC5)c(O)c4c3C2=O)NC(=O)/C(C)=C\C=C\[C@H](C)[C@H](O)[C@@H](C)[C@@H](O)[C@@H](C)[C@H](OC(C)=O)[C@@H]1C [Rifampicin, reference compound] |
| 16 | (8) | (16) | (16) | (8) | (8) | (4) | [H]/N=C(/N)N[C@H]1[C@H](O)[C@@H](O)[C@H](O[C@@H]2O[C@@H](C)[C@](O)(C=O)[C@H]2O[C@@H]2O[C@@H](CO)[C@H](O)[C@@H](O)[C@@H]2NC)[C@@H](N/C(N)=N\[H])[C@@H]1O [Streptomycin, reference compound] |
| 1 | (1) | (1) | (1) | (1) | (1) | (1) | NC[C@H]1O[C@H](O[C@H]2[C@H](O)[C@@H](O[C@H]3O[C@H](CO)[C@@H](O)[C@H](N)[C@H]3O)[C@H](N)C[C@@H]2N)[C@H](N)C[C@@H]1O [Tobramycin, reference compound] |
| 128 | (16) | (16) | (0.25) | (16) | (8) | (8) | COc1cc(Cc2cnc(N)nc2N)cc(OC)c1OC [Trimethoprim, reference compound] |

| SMILES | MICDrug | MICDrug in combo [1] | MICDrug in combo [2] | MICDrug in combo [3] | MICDrug in combo [4] | MICDrug in combo [5] | MICDrug in combo [6] |
| --- | --- | --- | --- | --- | --- | --- | --- |
| CN[C@H](CC(C)C)C(=O)N[C@H]1C(=O)N[C@@H](CC(N)=O)C(=O)N[C@H]2C(=O)N[C@H]3C(=O)N[C@H](C(=O)N[C@H](C(=O)O)c4cc(O)cc(O)c4-c4cc3ccc4O)[C@H](O)c3ccc(c(Cl)c3)Oc3cc2cc(c3O[C@@H]2O[C@H](CO)[C@@H](O)[C@H](O)[C@H]2O[C@H]2C[C@](C)(N)[C@H](O)[C@H](C)O2)Oc2ccc(cc2Cl)[C@H]1O [Vancomycin, reference compound] | 256 | (8) | (128) | (64) | (2) | (4) | (2) |
